Measurements from patent US9119401B2, “Plant glutamine synthetase inhibitors and methods for their identification” (priority 2012, dated 2015).
Where two headings read alike, the source gives them in different places.

How the values were obtained:
[1] = tested on: recombinant glutamine synthetase from Lotus japonicas; experiment: Biosynthetic assay for plant glutamine synthetase; assay type: biochemical; conditions: for effect on plant glutamate synthetase activity (in words): text summary of Table 5, 40 μg/ml
Procedure: The biosynthetic assay for plant glutamine synthetase was carried out as follows. This assay uses following solutions: reaction buffer (pH 6.8, 75 mM HEPES, 300 mM L-glutamic acid, 11 mM NH4Cl, 40 mM MgCl2), recombinant […] GS from Lotus japonicas (Betti et al., 2006) working solution (pH 6.8, 50 mM ATP), reaction quenching and color formation solution (12% w/v L-ascorbic acid in 1 N HCl solution and 2% w/v sodium molybdate in DD H2O), color fixing solution (1% sodium citrate tribasic dehydrate in 1% acetic acid in DD H2O), and blank solution (420 mM EDTA solution).
Commercial herbicide (i.e., glufosinate or DL-Phosphinotricin) was used a positive control. EDTA was used as a negative control. In this experiment, we used the active ingredient(s) in the extracts from Burkholderia Spp. (internal labeled as A396 strain or MBI-206 and/or MBI-010).

Burkholderia A396 = assay type: cell-based, Burkholderia sp. A396; conditions: for Susceptible: Muller-Hinton medium, 72-hour incubation at 25° C.; for Susceptibility of Burkholderia A396 (in words): Table 2
Procedure: Antibiotic susceptibility of Burkholderia A396 is tested using antibiotic disks on Muller-Hinton medium as described in PML Microbiological's technical data sheet #535.

B. cepacia isolates = conditions: 366 B. cepacia isolates, Pitt et al., 1996; cited from earlier work
[2] = tested on: B. cepacia complex strains isolated from cystic fibrosis patients; conditions: of 2,621 B. cepacia complex strains, Zhou et al., 2007; cited from earlier work
[3] = Table 5, pure compounds of MBI-206 and fractions, 40 μg/ml

CP(=O)(O)CCC(N)C(=O)O (racemic) [DL-Phosphinotricin]
GS inhibition (%) Plate 1 ([1]; Study #2 (MBI-206), 100 μg/ml): 68.8%
GS inhibition (%) Plate 2 ([1]; Study #2 (MBI-206), 100 μg/ml): 71.5%
GS inhibition (%) ([1]; Table 5, pure compounds of MBI-206 and fractions, 100 μg/ml): 70.8%
GS inhibition (%) ([1]; study #1 (MBI-010), 200 μg/ml final concentration): 70%
GS inhibition (%) ([1]; study #1 (MBI-010), 200 μg/ml final concentration, listed as DL-phosphinotricin): about 70%

CC1(C)S[C@@H]2[C@H](NC(=O)[C@H](N)c3ccccc3)C(=O)N2[C@H]1C(=O)O [Ampicillin]
Susceptible (Burkholderia A396; disk 10 ug): −

CO/N=C(\C(=O)N[C@@H]1C(=O)N2C(C(=O)O)=C(COC(N)=O)CS[C@H]12)c1ccco1 [Cefuroxime]
Susceptible (Burkholderia A396; disk 30 ug): −
antibiotic resistance of isolates (in words) (B. cepacia isolates): most of them are resistant

O=C(N[C@H](CO)[C@H](O)c1ccc([N+](=O)[O-])cc1)C(Cl)Cl [Chloramphenicol]
Susceptibility of Burkholderia A396 (in words) (Burkholderia A396): susceptible
Susceptible (Burkholderia A396; disk 30 ug): ++
strains resistant [2]: 85%
strains susceptible [2]: 15%

O=C(O)c1cn(C2CC2)c2cc(N3CCNCC3)c(F)cc2c1=O [Ciprofloxacin]
Susceptibility of Burkholderia A396 (in words) (Burkholderia A396): susceptible
Susceptible (Burkholderia A396; disk 5 ug): ++
strains susceptible [2]: 5%
antibiotic resistance of isolates (in words) (B. cepacia isolates): most of them are resistant

CC[C@H]1OC(=O)[C@H](C)[C@@H](O[C@H]2C[C@@](C)(OC)[C@@H](O)[C@H](C)O2)[C@H](C)[C@@H](O[C@@H]2O[C@H](C)C[C@H](N(C)C)[C@H]2O)[C@](C)(O)C[C@@H](C)C(=O)[C@H](C)[C@@H](O)[C@]1(C)O [Erythromycin]
Susceptible (Burkholderia A396; disk 15 ug): −

C/C=C1\NC(=O)[C@H]2CSSCC/C=C/[C@H](CC(=O)N[C@H](C(C)C)C(=O)N2)OC(=O)[C@H](C(C)C)NC1=O [FR901228 (iii), FR901228]
GS inhibition (%) [1, 3]: 57%
effect on plant glutamate synthetase activity (in words) [1]: inhibitory effect

C[C@@H](O)[C@H]1C(=O)N2C(C(=O)O)=C(SCCN=CN)C[C@H]12 [Imipenem]
Susceptible (Burkholderia A396; disk 10 ug): +++

NC[C@H]1O[C@H](O[C@H]2[C@H](O)[C@@H](O[C@H]3O[C@H](CO)[C@@H](O)[C@H](N)[C@H]3O)[C@H](N)C[C@@H]2N)[C@H](O)[C@@H](O)[C@@H]1O [Kanamycin]
Susceptible (Burkholderia A396; disk 30 ug): +++

CN(C)[C@@H]1C(O)=C(C(N)=O)C(=O)[C@@]2(O)C(O)=C3C(=O)c4c(O)cccc4[C@@](C)(O)[C@H]3[C@H](O)[C@@H]12 [Oxytetracycline]
Susceptible (Burkholderia A396; disk 30 ug): −

CCN1CCN(C(=O)N[C@@H](C(=O)N[C@@H]2C(=O)N3[C@@H]2SC(C)(C)[C@@H]3C(=O)O)c2ccccc2)C(=O)C1=O [Piperacillin]
Susceptibility of Burkholderia A396 (in words) (Burkholderia A396): susceptible
Susceptible (Burkholderia A396; disk 100 ug): +++

[H]/N=C(/N)N[C@H]1[C@H](O)[C@@H](O)[C@H](O[C@@H]2O[C@@H](C)[C@](O)(C=O)[C@H]2O[C@@H]2O[C@@H](CO)[C@H](O)[C@@H](O)[C@@H]2NC)[C@@H](N/C(N)=N\[H])[C@@H]1O [Streptomycin]
Susceptible (Burkholderia A396; disk 10 ug): −

COC(=O)c1nc(CC(C)C)oc1-c1c[nH]c2ccccc12 [Templazole A (i), templazole A]
GS inhibition (%) [1, 3]: 30%
effect on plant glutamate synthetase activity (in words) [1]: inhibitory effect

CN(C)[C@@H]1C(O)=C(C(N)=O)C(=O)[C@@]2(O)C(O)=C3C(=O)c4c(O)cccc4[C@@](C)(O)[C@H]3C[C@@H]12 [Tetracycline]
Susceptible (Burkholderia A396; disk 30 ug): −

Gentamicin
Susceptible (Burkholderia A396; disk 10 ug): −

Penicillin
Susceptible (Burkholderia A396; disk 10 ug): −

templazole B [Templazole B (ii)]
GS inhibition (%) [1, 3]: 46%
effect on plant glutamate synthetase activity (in words) [1]: inhibitory effect
